Reference: PMC6801739, “Antitumor Activity of a Novel Tyrosine Kinase Inhibitor AIU2001 Due to Abrogation of the DNA Damage Repair in Non-Small Cell Lung Cancer Cells” (International Journal of Molecular Sciences, 2019)

Legend:
FLT3 [1] = molecular target: T1, FLT3 (Homo sapiens, UniProt P36888); assay: In vitro kinase assay, IC50 (Reaction Biology Corp.); type: biochemical
T1 construct: purchased Eurofins Pharma Discovery (KinaseProfiler); IC50 values by Reaction Biology Corp

CDK2/cyclinA = molecular target: T2, CDK2/cyclinA (Homo sapiens, UniProt P24941); assay: Kinase profiling at 10 μM (Eurofins); type: biochemical; settings: read-out: Inhibitory activity
T2 construct: purchased Eurofins Pharma Discovery (KinaseProfiler); IC50 values by Reaction Biology Corp

CHK1 = molecular target: T3, CHK1 (Homo sapiens, UniProt O14757); assay: Kinase profiling at 10 μM (Eurofins); type: biochemical; settings: read-out: Inhibitory activity
T3 construct: purchased Eurofins Pharma Discovery (KinaseProfiler); IC50 values by Reaction Biology Corp

c-KIT (D816H) = molecular target: T4, c-KIT (D816H) (Homo sapiens, UniProt P10721, D816H); assay: Kinase profiling at 10 μM (Eurofins); type: biochemical; settings: read-out: Inhibitory activity
T4 construct: purchased Eurofins Pharma Discovery (KinaseProfiler); IC50 values by Reaction Biology Corp

c-KIT (V560G) = molecular target: T5, c-KIT (V560G) (Homo sapiens, UniProt P10721, V560G); assay: Kinase profiling at 10 μM (Eurofins); type: biochemical; settings: read-out: Inhibitory activity
T5 construct: purchased Eurofins Pharma Discovery (KinaseProfiler); IC50 values by Reaction Biology Corp

DDR2 = molecular target: T6, DDR2 (Homo sapiens, UniProt Q16832); assay: Kinase profiling at 10 μM (Eurofins); type: biochemical; settings: read-out: Inhibitory activity
T6 construct: purchased Eurofins Pharma Discovery (KinaseProfiler); IC50 values by Reaction Biology Corp

FAK = molecular target: T7, FAK (Homo sapiens, UniProt Q05397); assay: Kinase profiling at 10 μM (Eurofins); type: biochemical; settings: read-out: Inhibitory activity
T7 construct: purchased Eurofins Pharma Discovery (KinaseProfiler); IC50 values by Reaction Biology Corp

FLT3 [2] = molecular target: T1, FLT3; assay: Kinase profiling at 10 μM (Eurofins); type: biochemical; settings: read-out: Inhibitory activity
HIPK2 = molecular target: T8, HIPK2 (Homo sapiens, UniProt Q9H2X6); assay: Kinase profiling at 10 μM (Eurofins); type: biochemical; settings: read-out: Inhibitory activity
T8 construct: purchased Eurofins Pharma Discovery (KinaseProfiler); IC50 values by Reaction Biology Corp

IKKα = molecular target: T9, IKKα (Homo sapiens, UniProt O15111); assay: Kinase profiling at 10 μM (Eurofins); type: biochemical; settings: read-out: Inhibitory activity
T9 construct: purchased Eurofins Pharma Discovery (KinaseProfiler); IC50 values by Reaction Biology Corp

MAPK2 = molecular target: T10, MAPK2 (Homo sapiens, UniProt P28482); assay: Kinase profiling at 10 μM (Eurofins); type: biochemical; settings: read-out: Inhibitory activity
T10 construct: purchased Eurofins Pharma Discovery (KinaseProfiler); IC50 values by Reaction Biology Corp

Met = molecular target: T11, Met (Homo sapiens, UniProt P08581); assay: Kinase profiling at 10 μM (Eurofins); type: biochemical; settings: read-out: Inhibitory activity
T11 construct: purchased Eurofins Pharma Discovery (KinaseProfiler); IC50 values by Reaction Biology Corp

PDGFRα(D842V) = molecular target: T12, PDGFRα(D842V) (Homo sapiens, UniProt P16234, D842V); assay: Kinase profiling at 10 μM (Eurofins); type: biochemical; settings: read-out: Inhibitory activity
T12 construct: purchased Eurofins Pharma Discovery (KinaseProfiler); IC50 values by Reaction Biology Corp

PIM-1 = molecular target: T13, PIM-1 (Homo sapiens, UniProt P11309); assay: Kinase profiling at 10 μM (Eurofins); type: biochemical; settings: read-out: Inhibitory activity
T13 construct: purchased Eurofins Pharma Discovery (KinaseProfiler); IC50 values by Reaction Biology Corp

PKBα = molecular target: T14, PKBα (Homo sapiens, UniProt P31749); assay: Kinase profiling at 10 μM (Eurofins); type: biochemical; settings: read-out: Inhibitory activity
T14 construct: purchased Eurofins Pharma Discovery (KinaseProfiler); IC50 values by Reaction Biology Corp

ROS = molecular target: T15, ROS (Homo sapiens, UniProt P08922); assay: Kinase profiling at 10 μM (Eurofins); type: biochemical; settings: read-out: Inhibitory activity
T15 construct: purchased Eurofins Pharma Discovery (KinaseProfiler); IC50 values by Reaction Biology Corp

SRC (1-530) = molecular target: T16, SRC (1-530) (Homo sapiens, UniProt P12931); assay: Kinase profiling at 10 μM (Eurofins); type: biochemical; settings: read-out: Inhibitory activity
T16 construct: purchased Eurofins Pharma Discovery (KinaseProfiler); IC50 values by Reaction Biology Corp

TAK1 = molecular target: T17, TAK1 (Homo sapiens, UniProt O43318); assay: Kinase profiling at 10 μM (Eurofins); type: biochemical; settings: read-out: Inhibitory activity
T17 construct: purchased Eurofins Pharma Discovery (KinaseProfiler); IC50 values by Reaction Biology Corp

TGFBR1 = molecular target: T18, TGFBR1 (Homo sapiens, UniProt P36897); assay: Kinase profiling at 10 μM (Eurofins); type: biochemical; settings: read-out: Inhibitory activity
T18 construct: purchased Eurofins Pharma Discovery (KinaseProfiler); IC50 values by Reaction Biology Corp

MV4-11 cells = assay: CCK-8 cell viability assay; type: cell-based, human; settings: CCK-8, 5 days
Protocol: (§1) Supplementary Figure 1. AIU2001 inhibited the proliferation of various cancer cells. (A and B) Human AML cells (Molm-13 and MV4-11; A) and human colorectal cancer (CRC) cells (HCT116/p53+/+ and HCT116/p53-/-; B) were treated with AIU2001 at the indicated concentrations for 5 days and viable cells were evaluated using the CCK-8 assay for AML cells and the MTT assay for CRC cells. *p < 0.05, **p < 0.01, ***p < 0.001 versus respective vehicle controls.
(§2) (also on this page, place not known: ca ncer fo r 02468 Cell viability (%) 0 1 Cell viability (%) *** *** ***) […]
(§3) Cell viability. Cytotoxicity assay of AML cells was performed using cell counting kit-8 (CCD-8; Dojindo, Japan) according to the manufacturer’s procedure. Briefly, MV4-11 or Molm-13 cells were plated in 96-well plates at a density of […] or 1 × 10^3 cells/well in triplicate, treated with AIU2001 or DMSO, and then incubated for 5 days. After adding the CCK-8 solution (10 μl) to each well and incubating the plates for 3 h, absorbance at 450 nm was measured using a microplate reader

Molm-13 cells = assay: CCK-8 cell viability assay; type: cell-based, human; settings: CCK-8, 5 days
Protocol: as §1, §2, §3

A549 cells [3] = assay: Immunoblot of cell cycle checkpoint proteins; type: cell-based, human; settings: 5 μM
Protocol: (§4) Cell lysates were prepared by extracting proteins with TNN buffer (40 mM Tris-Cl pH 8.0, 0.2% NP-40, 120 mM NaCl) or radioimmunoprecipitation assay (RIPA) lysis buffer (Millipore, Billerica MA, USA) supplemented with a protease inhibitor cocktail (Thermo Fisher Scientific, Rockford, IL, USA). Equal amounts of proteins were separated using SDS-PAGE on 8–13% gels, and transferred to nitrocellulose membranes (Bio-Rad, Hercules, CA, USA). The membranes were blocked with 5% skim milk in Tris-buffered saline-Tween 20 (TBST) (150 mM NaCl, 10 mM Tris, 0.2% Tween20), followed by overnight incubation with primary antibodies at 4 °C. The blots were developed using peroxidase-conjugated secondary antibody and the immunoreactive proteins were visualized using enhanced chemiluminescence (ECL) reagents, according to the manufacturer’s recommendations (Amersham, GE Healthcare, Buckingamshire, UK). The protein bands were visualized using a digital imaging system (ImageQuant LAS 4000 mini; GE Healthcare, UK). The protein levels were analyzed using Image J software (National Institutes of Health, Bethesda, MD, USA). Experiments were repeated at least thrice.

H1299 cells [4] = assay: Immunoblot of cell cycle checkpoint proteins; type: cell-based, human; settings: 5 μM, 6 h or 24 h
Protocol: as §4

A549 cells [5] = assay: Detection of intracellular ROS (CM-H2DCFDA, flow cytometry); type: cell-based, human; settings: 5 μM, 24 h
Protocol: (§5) DMSO- or AIU2001-treated cells (5 × 10^5) were further treated with 10 μM CM-H2DCFH-DA for 30min and then washed with PBS before trypsinization. After detaching with trypsin, the cells were collected, washed, and resuspended in PBS. ROS inhibition was evaluated by treating cells with 5 mM NAC 2 h prior to AIU2001 treatment. Intracellular ROS levels were detected using a flow cytometer (CyFlow cube 6) at excitation/emission wavelengths of 488/525 nm.

H1299 cells [6] = assay: as above; type: cell-based, human; settings: 5 μM, 24 h
Protocol: as §5

T1 sequence (P36888 27-993): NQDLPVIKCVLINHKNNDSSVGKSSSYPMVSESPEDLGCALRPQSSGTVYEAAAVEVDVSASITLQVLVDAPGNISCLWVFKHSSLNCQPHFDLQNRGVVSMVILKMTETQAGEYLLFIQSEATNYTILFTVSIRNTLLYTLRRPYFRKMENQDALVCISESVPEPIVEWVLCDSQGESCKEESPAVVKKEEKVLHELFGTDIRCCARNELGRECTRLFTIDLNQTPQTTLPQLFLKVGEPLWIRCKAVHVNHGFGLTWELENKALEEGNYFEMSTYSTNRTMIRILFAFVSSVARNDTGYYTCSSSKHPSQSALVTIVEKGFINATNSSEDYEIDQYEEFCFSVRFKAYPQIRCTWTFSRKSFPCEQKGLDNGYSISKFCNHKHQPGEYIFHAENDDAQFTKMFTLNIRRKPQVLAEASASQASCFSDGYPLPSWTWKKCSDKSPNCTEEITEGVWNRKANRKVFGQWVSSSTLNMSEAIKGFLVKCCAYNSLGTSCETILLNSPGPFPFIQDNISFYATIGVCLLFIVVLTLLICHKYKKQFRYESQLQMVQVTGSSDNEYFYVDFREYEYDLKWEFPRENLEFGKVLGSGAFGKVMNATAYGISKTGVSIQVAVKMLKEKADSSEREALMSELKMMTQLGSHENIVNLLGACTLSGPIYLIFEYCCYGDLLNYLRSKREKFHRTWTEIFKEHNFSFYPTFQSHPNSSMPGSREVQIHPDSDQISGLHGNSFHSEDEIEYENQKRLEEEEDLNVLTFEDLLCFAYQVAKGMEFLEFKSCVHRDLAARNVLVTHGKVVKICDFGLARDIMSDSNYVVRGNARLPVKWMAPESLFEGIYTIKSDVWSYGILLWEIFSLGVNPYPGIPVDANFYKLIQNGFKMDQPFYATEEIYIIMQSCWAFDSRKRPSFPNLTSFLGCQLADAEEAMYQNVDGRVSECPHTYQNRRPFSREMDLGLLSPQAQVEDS
T8 sequence (Q9H2X6 whole entry): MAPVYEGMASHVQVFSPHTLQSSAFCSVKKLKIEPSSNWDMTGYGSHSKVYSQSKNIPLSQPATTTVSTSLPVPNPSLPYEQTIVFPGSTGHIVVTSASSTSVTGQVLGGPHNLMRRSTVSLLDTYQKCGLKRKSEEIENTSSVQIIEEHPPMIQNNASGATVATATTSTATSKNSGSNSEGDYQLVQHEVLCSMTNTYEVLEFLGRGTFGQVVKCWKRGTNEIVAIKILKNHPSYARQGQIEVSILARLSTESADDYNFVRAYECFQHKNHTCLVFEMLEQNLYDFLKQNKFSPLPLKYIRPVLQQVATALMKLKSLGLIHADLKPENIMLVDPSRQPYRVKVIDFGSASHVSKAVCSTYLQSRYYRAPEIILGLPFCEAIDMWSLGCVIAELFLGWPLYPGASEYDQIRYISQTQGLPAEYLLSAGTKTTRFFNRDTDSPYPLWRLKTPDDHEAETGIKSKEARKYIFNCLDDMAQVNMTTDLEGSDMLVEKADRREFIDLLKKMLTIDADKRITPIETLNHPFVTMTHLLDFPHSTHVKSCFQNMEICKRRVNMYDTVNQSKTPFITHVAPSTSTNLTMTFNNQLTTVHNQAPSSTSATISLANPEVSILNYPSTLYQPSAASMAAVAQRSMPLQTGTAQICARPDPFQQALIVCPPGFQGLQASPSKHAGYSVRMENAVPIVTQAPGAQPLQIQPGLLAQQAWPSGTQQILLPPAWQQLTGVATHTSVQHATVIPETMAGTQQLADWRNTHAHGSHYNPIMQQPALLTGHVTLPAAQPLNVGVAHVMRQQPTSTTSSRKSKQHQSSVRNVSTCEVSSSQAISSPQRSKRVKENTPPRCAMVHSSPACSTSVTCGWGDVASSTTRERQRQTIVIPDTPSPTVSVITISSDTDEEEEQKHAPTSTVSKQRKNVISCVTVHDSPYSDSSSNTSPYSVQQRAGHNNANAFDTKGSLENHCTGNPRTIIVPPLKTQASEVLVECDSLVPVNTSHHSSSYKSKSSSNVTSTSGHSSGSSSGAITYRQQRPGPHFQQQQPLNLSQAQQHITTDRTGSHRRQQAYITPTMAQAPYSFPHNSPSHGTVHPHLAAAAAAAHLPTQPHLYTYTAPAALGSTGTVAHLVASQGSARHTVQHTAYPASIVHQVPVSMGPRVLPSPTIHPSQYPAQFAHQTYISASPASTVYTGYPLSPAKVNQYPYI
T6 sequence (Q16832 22-855): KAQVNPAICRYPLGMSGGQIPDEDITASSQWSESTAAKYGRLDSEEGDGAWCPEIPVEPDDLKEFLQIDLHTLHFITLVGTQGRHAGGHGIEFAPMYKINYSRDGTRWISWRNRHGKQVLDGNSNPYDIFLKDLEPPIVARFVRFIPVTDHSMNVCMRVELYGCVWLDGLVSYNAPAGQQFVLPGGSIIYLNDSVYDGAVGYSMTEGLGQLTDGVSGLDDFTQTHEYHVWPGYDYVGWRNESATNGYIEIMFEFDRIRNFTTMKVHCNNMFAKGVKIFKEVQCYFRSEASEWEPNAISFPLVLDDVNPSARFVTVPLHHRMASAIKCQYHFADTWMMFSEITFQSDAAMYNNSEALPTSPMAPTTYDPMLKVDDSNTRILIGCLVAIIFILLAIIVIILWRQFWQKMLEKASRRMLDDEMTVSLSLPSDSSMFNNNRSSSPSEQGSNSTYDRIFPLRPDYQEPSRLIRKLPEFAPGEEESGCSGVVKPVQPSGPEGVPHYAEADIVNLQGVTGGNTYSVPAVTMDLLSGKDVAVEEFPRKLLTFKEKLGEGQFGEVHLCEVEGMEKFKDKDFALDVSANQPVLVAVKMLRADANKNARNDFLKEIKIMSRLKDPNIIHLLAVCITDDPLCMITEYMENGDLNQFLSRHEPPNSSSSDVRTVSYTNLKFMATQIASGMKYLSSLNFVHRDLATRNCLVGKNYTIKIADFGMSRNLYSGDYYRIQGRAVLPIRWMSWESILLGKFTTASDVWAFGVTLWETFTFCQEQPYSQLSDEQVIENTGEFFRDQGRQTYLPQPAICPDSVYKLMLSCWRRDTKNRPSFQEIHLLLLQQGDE
T10 sequence (P28482 whole entry): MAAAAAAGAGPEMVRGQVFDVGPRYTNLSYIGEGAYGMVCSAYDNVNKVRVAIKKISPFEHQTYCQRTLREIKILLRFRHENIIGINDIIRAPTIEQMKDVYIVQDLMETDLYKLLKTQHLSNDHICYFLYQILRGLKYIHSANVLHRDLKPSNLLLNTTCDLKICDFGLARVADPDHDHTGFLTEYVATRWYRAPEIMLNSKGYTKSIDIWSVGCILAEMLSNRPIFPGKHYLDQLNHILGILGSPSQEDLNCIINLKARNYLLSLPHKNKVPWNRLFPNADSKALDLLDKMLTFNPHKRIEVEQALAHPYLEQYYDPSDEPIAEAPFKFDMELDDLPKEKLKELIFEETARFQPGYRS
T18 sequence (P36897 34-503): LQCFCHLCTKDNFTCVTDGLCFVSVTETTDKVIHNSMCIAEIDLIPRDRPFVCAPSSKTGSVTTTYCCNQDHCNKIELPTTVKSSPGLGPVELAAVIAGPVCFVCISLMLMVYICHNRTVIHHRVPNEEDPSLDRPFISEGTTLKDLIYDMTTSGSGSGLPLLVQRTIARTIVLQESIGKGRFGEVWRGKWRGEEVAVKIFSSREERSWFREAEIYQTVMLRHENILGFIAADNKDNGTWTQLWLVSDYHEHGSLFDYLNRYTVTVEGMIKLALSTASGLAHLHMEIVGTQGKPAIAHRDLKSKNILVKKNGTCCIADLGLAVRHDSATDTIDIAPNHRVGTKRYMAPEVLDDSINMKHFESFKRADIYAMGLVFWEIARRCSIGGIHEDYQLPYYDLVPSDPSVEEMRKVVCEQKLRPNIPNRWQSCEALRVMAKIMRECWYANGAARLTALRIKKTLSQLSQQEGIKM
T5 sequence (P10721 26-976 V560G): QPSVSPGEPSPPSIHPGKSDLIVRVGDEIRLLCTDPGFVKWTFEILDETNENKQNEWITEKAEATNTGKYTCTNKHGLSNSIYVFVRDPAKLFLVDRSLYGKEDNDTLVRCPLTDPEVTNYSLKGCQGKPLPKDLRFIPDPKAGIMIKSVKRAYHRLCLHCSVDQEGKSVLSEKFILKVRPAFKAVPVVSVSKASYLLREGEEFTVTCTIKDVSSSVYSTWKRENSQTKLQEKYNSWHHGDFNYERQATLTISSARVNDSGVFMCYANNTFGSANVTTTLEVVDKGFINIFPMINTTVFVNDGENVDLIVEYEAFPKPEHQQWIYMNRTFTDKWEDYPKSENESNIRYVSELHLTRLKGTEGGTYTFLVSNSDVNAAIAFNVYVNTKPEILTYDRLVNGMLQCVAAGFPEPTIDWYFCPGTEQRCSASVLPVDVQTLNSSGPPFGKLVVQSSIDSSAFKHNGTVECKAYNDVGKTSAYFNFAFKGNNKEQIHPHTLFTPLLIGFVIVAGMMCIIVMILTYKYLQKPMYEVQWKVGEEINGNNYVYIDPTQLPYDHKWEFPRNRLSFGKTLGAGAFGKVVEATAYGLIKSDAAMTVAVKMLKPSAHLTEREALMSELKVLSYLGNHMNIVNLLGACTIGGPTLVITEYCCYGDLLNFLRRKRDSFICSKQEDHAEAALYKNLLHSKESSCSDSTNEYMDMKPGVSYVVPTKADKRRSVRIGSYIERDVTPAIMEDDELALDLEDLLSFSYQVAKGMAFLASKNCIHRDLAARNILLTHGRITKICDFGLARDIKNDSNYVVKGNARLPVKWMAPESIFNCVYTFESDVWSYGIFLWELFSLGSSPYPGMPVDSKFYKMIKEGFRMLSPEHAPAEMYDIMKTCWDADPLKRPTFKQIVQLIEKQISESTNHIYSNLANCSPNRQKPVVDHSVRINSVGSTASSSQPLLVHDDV
T4 sequence (P10721 26-976 D816H): as the sequence (P10721 26-976 V560G) above, with G535V, D791H counted along it

With `Brc1ccc(-c2cnc(Nc3cccc4ccccc34)o2)cc1` [AIU2001, 5-(4-bromophenyl)-N-(naphthalen-1-yl) oxazol-2-amine] the IC50 (FLT3 [1]) was 0.206 µM, the inhibition at 10 µM (CDK2/cyclinA) was 39% and the inhibition at 10 µM (CHK1) was 0%. It also gave an inhibition at 10 µM (c-KIT (D816H)) of 48%, an inhibition at 10 µM (c-KIT (V560G)) of at least 75% and an inhibition at 10 µM (DDR2) of 55%. It also gave an inhibition at 10 µM (FAK) of 16%, an inhibition at 10 µM (FLT3 [2]) of at least 75% and an inhibition at 10 µM (HIPK2) of 0%. For the same compound, the inhibition at 10 µM (IKKα) was 7%, the inhibition at 10 µM (MAPK2) was 19% and the inhibition at 10 µM (Met) was 1%. The inhibition at 10 µM (PDGFRα(D842V)) was 23%, the inhibition at 10 µM (PIM-1) was 37% and the inhibition at 10 µM (PKBα) was 24%. The inhibition at 10 µM (ROS) was 2%, the inhibition at 10 µM (SRC (1-530)) was 10% and the inhibition at 10 µM (TAK1) was 15%. The inhibition at 10 µM (TGFBR1) was 12%, the “Growth inhibition” value (MV4-11 cells) was “inhibited the growth” and the “Growth inhibition” value (Molm-13 cells) was “inhibited the growth”. The “Expression of p21” value (A549 cells [3]; A549 (p53 wild-type)) was “increased in A549 cells”, the “Expression of phosphorylated p53” value (A549 cells [3]; A549 (p53 wild-type)) was “increased in A549 cells” and the CDC25C level (A549 cells [3]; A549, 6 h or 24 h) was “decrease”. The “Cyclin B1 level” value (A549 cells [3]; A549, 6 h or 24 h) was “significant increase”, the “Phosphorylated histone H3 level” value (A549 cells [3]; A549, 6 h or 24 h) was “significant increase” and the “Phosphorylation of CHK1 at Ser345” value (A549 cells [3]; A549, 6 h or 24 h) was “increased the phosphorylation”. For the same compound, the “Phosphorylation of CHK2 at Thr68” value (A549 cells [3]; A549, 6 h or 24 h) was “increased the phosphorylation”, the CDC25C level (H1299 cells [4]) was “decrease” and the “Cyclin B1 level” value (H1299 cells [4]) was “significant increase”. For the same compound, the “Phosphorylated histone H3 level” value (H1299 cells [4]) was “significant increase”, the “Phosphorylation of CHK1 at Ser345” value (H1299 cells [4]) was “increased the phosphorylation” and the “Phosphorylation of CHK2 at Thr68” value (H1299 cells [4]) was “increased the phosphorylation”. For the same compound, the “ROS levels” value (A549 cells [5]) was “distinctly increased ROS levels” and the “ROS levels” value (H1299 cells [6]) was “distinctly increased ROS levels”.
